# System: 422866-222-R5-J1-PDC complex spheroids viability
# Test: Anticancer human tumor 422866-222-R5-J1-PDC patient-derived pancreatic adenocarcinoma cell line growth inhibition [RAS]
# Conditions: for IC50: curve of first compound; for viability, T/C: stronger effect = lower value
# Summary of the method: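 Tumour cells grown as complex spheroids with HUVEC endothelial cells and mesenchymal stem cells, treated with RAS pathway inhibitor combinations. Each agent spans half-log steps from near clinical Cmax, or 10 microM where Cmax is unknown.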
# [1] = second compound 0.00316 µM, first compound 0.0316 µM
# [2] = second compound 0.00316 µM, first compound 0.1 µM
# [3] = second compound 0.00316 µM, first compound 0.316 µM
# [4] = second compound 0.00316 µM, first compound 1 µM
# [5] = second compound 0.00316 µM, first compound 3.16 µM
# [6] = second compound 0.00316 µM, first compound 10 µM
# [7] = second compound 0.01 µM, first compound 0.0316 µM
# [8] = second compound 0.01 µM, first compound 0.1 µM
# [9] = second compound 0.01 µM, first compound 0.316 µM
# [10] = second compound 0.01 µM, first compound 1 µM
# [11] = second compound 0.01 µM, first compound 3.16 µM
# [12] = second compound 0.01 µM, first compound 10 µM
# [13] = second compound 0.0316 µM, first compound 0.0316 µM
# [14] = second compound 0.0316 µM, first compound 0.1 µM
# [15] = second compound 0.0316 µM, first compound 0.316 µM
# [16] = second compound 0.0316 µM, first compound 1 µM
# [17] = second compound 0.0316 µM, first compound 3.16 µM
# [18] = second compound 0.0316 µM, first compound 10 µM
# [19] = second compound 0.1 µM, first compound 0.0316 µM
# [20] = second compound 0.1 µM, first compound 0.1 µM
# [21] = second compound 0.1 µM, first compound 0.316 µM
# [22] = second compound 0.1 µM, first compound 1 µM
# [23] = second compound 0.1 µM, first compound 3.16 µM
# [24] = second compound 0.1 µM, first compound 10 µM
# [25] = second compound 0.316 µM, first compound 0.0316 µM
# [26] = second compound 0.316 µM, first compound 0.1 µM
# [27] = second compound 0.316 µM, first compound 0.316 µM
# [28] = second compound 0.316 µM, first compound 1 µM
# [29] = second compound 0.316 µM, first compound 3.16 µM
# [30] = second compound 0.316 µM, first compound 10 µM
# [31] = second compound 1 µM, first compound 0.0316 µM
# [32] = second compound 1 µM, first compound 0.1 µM
# [33] = second compound 1 µM, first compound 0.316 µM
# [34] = second compound 1 µM, first compound 1 µM
# [35] = second compound 1 µM, first compound 3.16 µM
# [36] = second compound 1 µM, first compound 10 µM
# 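Note: spheroids exposed to compounds for 7 days.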
# 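Throughout, for viability, T/C: 100% = DMSO vehicle control viability.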
smiles,measurement,setting,value
CC(Nc1ccc2c(c1)OCCn1cc(N3C(=O)OCC3C(F)F)nc1-2)C(N)=O (stereo unspecified) + C=CC(=O)N1CCN(c2nc(OCC3CCCN3C)nc3c(F)c(-c4nc(N)cc(C)c4C(F)(F)F)c(Cl)cc23)C(C)C1,IC50,second compound 0.00316 µM,< 31.6 nM
same,IC50,second compound 0.01 µM,< 31.6 nM
same,IC50,second compound 0.0316 µM,< 31.6 nM
same,IC50,second compound 0.1 µM,< 31.6 nM
same,IC50,second compound 0.316 µM,< 31.6 nM
same,IC50,second compound 1 µM,< 31.6 nM
same,"viability, T/C",[1],20.8%
same,"viability, T/C",[2],19.9%
same,"viability, T/C",[3],12.6%
same,"viability, T/C",[4],11%
same,"viability, T/C",[5],7.97%
same,"viability, T/C",[6],7.01%
same,"viability, T/C",[7],19.1%
same,"viability, T/C",[8],18%
same,"viability, T/C",[9],13.5%
same,"viability, T/C",[10],6.65%
same,"viability, T/C",[11],7.17%
same,"viability, T/C",[12],4.82%
same,"viability, T/C",[13],24.5%
same,"viability, T/C",[14],14.3%
same,"viability, T/C",[15],9.64%
same,"viability, T/C",[16],7.15%
same,"viability, T/C",[17],5.78%
same,"viability, T/C",[18],4.99%
same,"viability, T/C",[19],14.6%
same,"viability, T/C",[20],10.9%
same,"viability, T/C",[21],9.29%
same,"viability, T/C",[22],8.93%
same,"viability, T/C",[23],5.79%
same,"viability, T/C",[24],5.64%
same,"viability, T/C",[25],18.3%
same,"viability, T/C",[26],11%
same,"viability, T/C",[27],9.82%
same,"viability, T/C",[28],6.95%
same,"viability, T/C",[29],6.91%
same,"viability, T/C",[30],7.16%
same,"viability, T/C",[31],16.5%
same,"viability, T/C",[32],15.8%
same,"viability, T/C",[33],9.93%
same,"viability, T/C",[34],7.52%
same,"viability, T/C",[35],6.84%
same,"viability, T/C",[36],7.05%
C[C@@H](NC(=O)c1ncnc(N)c1Cl)c1ncc(C(=O)Nc2cc(C(F)(F)F)c(Cl)cn2)s1 + C=CC(=O)N1CCN(c2nc(OCC3CCCN3C)nc3c(F)c(-c4nc(N)cc(C)c4C(F)(F)F)c(Cl)cc23)C(C)C1,IC50,second compound 0.00316 µM,< 31.6 nM
same,IC50,second compound 0.01 µM,< 31.6 nM
same,IC50,second compound 0.0316 µM,< 31.6 nM
same,IC50,second compound 0.1 µM,< 31.6 nM
same,IC50,second compound 0.316 µM,< 31.6 nM
same,IC50,second compound 1 µM,< 31.6 nM
same,"viability, T/C",[1],31.7%
same,"viability, T/C",[2],47.2%
same,"viability, T/C",[3],31.7%
same,"viability, T/C",[4],29%
same,"viability, T/C",[5],32%
same,"viability, T/C",[6],30.6%
same,"viability, T/C",[7],41.5%
same,"viability, T/C",[8],32.2%
same,"viability, T/C",[9],33.3%
same,"viability, T/C",[10],29.2%
same,"viability, T/C",[11],30%
same,"viability, T/C",[12],28.9%
same,"viability, T/C",[13],30.8%
same,"viability, T/C",[14],30.8%
same,"viability, T/C",[15],25.1%
same,"viability, T/C",[16],27.4%
same,"viability, T/C",[17],29.5%
same,"viability, T/C",[18],26.7%
same,"viability, T/C",[19],30.5%
same,"viability, T/C",[20],25%
same,"viability, T/C",[21],27.9%
same,"viability, T/C",[22],30.3%
same,"viability, T/C",[23],26.7%
same,"viability, T/C",[24],30.5%
same,"viability, T/C",[25],28%
same,"viability, T/C",[26],24.1%
same,"viability, T/C",[27],27.6%
same,"viability, T/C",[28],23.1%
same,"viability, T/C",[29],28.6%
same,"viability, T/C",[30],31.8%
same,"viability, T/C",[31],27.1%
same,"viability, T/C",[32],29.4%
same,"viability, T/C",[33],27.2%
same,"viability, T/C",[34],30%
same,"viability, T/C",[35],32.1%
same,"viability, T/C",[36],29.4%
O=C(c1ccc(F)c(F)c1Nc1ccc(I)cc1F)N1CC(O)([C@@H]2CCCCN2)C1 + C=CC(=O)N1CCN(c2nc(OCC3CCCN3C)nc3c(F)c(-c4nc(N)cc(C)c4C(F)(F)F)c(Cl)cc23)C(C)C1,IC50,second compound 0.00316 µM,< 3.16 nM
same,IC50,second compound 0.01 µM,< 3.16 nM
same,IC50,second compound 0.0316 µM,< 3.16 nM
same,IC50,second compound 0.1 µM,< 3.16 nM
same,IC50,second compound 0.316 µM,< 3.16 nM
same,IC50,second compound 1 µM,< 3.16 nM
same,"viability, T/C","second compound 0.00316 µM, first compound 0.00316 µM",27.3%
same,"viability, T/C","second compound 0.00316 µM, first compound 0.01 µM",29%
same,"viability, T/C",[1],20.7%
same,"viability, T/C",[2],18.1%
same,"viability, T/C",[3],16.6%
same,"viability, T/C",[4],17.1%
same,"viability, T/C","second compound 0.01 µM, first compound 0.00316 µM",39.6%
same,"viability, T/C","second compound 0.01 µM, first compound 0.01 µM",22.1%
same,"viability, T/C",[7],21.8%
same,"viability, T/C",[8],15.2%
same,"viability, T/C",[9],17%
same,"viability, T/C",[10],12.9%
same,"viability, T/C","second compound 0.0316 µM, first compound 0.00316 µM",28.7%
same,"viability, T/C","second compound 0.0316 µM, first compound 0.01 µM",24.2%
same,"viability, T/C",[13],18.3%
same,"viability, T/C",[14],14.5%
same,"viability, T/C",[15],17.8%
same,"viability, T/C",[16],14.6%
same,"viability, T/C","second compound 0.1 µM, first compound 0.00316 µM",22.3%
same,"viability, T/C","second compound 0.1 µM, first compound 0.01 µM",18.9%
same,"viability, T/C",[19],17.4%
same,"viability, T/C",[20],13.8%
same,"viability, T/C",[21],14.9%
same,"viability, T/C",[22],14.3%
same,"viability, T/C","second compound 0.316 µM, first compound 0.00316 µM",18%
same,"viability, T/C","second compound 0.316 µM, first compound 0.01 µM",18.2%
same,"viability, T/C",[25],20.1%
same,"viability, T/C",[26],12.6%
same,"viability, T/C",[27],16.4%
same,"viability, T/C",[28],14.1%
same,"viability, T/C","second compound 1 µM, first compound 0.00316 µM",19.7%
same,"viability, T/C","second compound 1 µM, first compound 0.01 µM",17.7%
same,"viability, T/C",[31],18.5%
same,"viability, T/C",[32],15%
same,"viability, T/C",[33],14.8%
same,"viability, T/C",[34],16.1%

# Source: PubChem BioAssay AID2060901 (Molecular Pharmacology Branch, DTP, NCI, 2025)
